Patent publication US20130310411A1, “NOVEL ACRIDINE DERIVATIVES” (PHARMINOX LIMITED, priority 2010, published 2013)

Columns and labels:
[1] = system: hTel, 5′ biotin-d[AG3(T2AG3)3]3′ (quadraplex) versus duplex, 5′biotind[CGA3T3C2TCTGA3T3CG]3′; test: Surface Plasmon Resonance Assay (SPR); format: binding; details: HEPES buffer pH 7.3, 25° C.
Method: Biosensor experiments were conducted in filtered, degassed HEPES buffer (10 mM HEPES, 100 mM KCl, 3 mM EDTA, 0.000 05 v/v of 10% P20 BIACORE surfactant, pH 7.3) at 25° C. The 5′-biotin labeled DNA sequences (Integrated DNA Technologies) were HPLC purified and comprise the following sequences: hTel, ^5′ biotin-d[AG3(T2AG3)3]^3′; duplex, ^5′biotind[CGA3T3C2TCTGA3T3CG]^3′. The experiments were conducted upon a BIAcore 2000 optical biosensor instrument (BIAcore Inc.). Flow cell 1 was left blank as a reference, while flow cells 2-4 were immobilized with DNA on a streptavidin-derivatized gold chip (SA chip from BIAcore) by manual injection of DNA stock solutions (flow rate of 1 μL/min) until the desired value of DNA response was obtained (350-400 RU). Typically, a series of different ligand concentrations (1 nM to 10 μM from 20 mM DMSO stock) were injected onto the chip (flow rate of 50 μL/min, 5-10 min) until a constant steady-state response was obtained followed by a dissociation period (buffer, 10 min). After every cycle, the chip surface was regenerated (20 s injection of 10 mM glycine solution, pH 2.0) followed by running buffer flow. The data were processed using BIAevaluation (BIAcore Inc.) and Kaleidagraph (Synergy Software) software for nonlinear least-squares optimization of the binding parameters.

[2] = system: HT-29: human adenocarcinoma cell line; test: Growth inhibition assay (MTT); format: cell-based; details: HT-29 cells, 96 hr incubation
Method: Growth inhibition was measured in the HT-29: human adenocarcinoma cell line using the 3-(4,5-Dimethylthiazol-2-yl)-2,5-diphenyltetrazolium bromide (MTT) assay:
Briefly, between 1500 and 2200 cells were seeded into the wells of 96-well microtiter plates and allowed to attach overnight. Test compounds were solubilised at 10 mM in dimethyl sulfoxide (DMSO), diluted in tissue culture media and added to cells at final concentrations of 30, 10, 3, 1, 0.3, 0.1, 0.03 and 0.01 μM in triplicate. Following an incubation period of 96 hr MTT was added to a final concentration of 400 μg/ml and the plates incubated for a further 4 hr. The media/MTT was then aspirated and 150 μl DMSO added. Plates were shaken briefly and the absorbance at 550 nm read using a Labtech LT-4000 plate reader. An extra plate was seeded and the MTT assay was carried out on this plate at the time of drug addition to ascertain an initial absorbance value.
Dose response curves were plotted and the GI50 values (concentration required to inhibit cell growth by 50%) determined for each agent where the absorbance value for control cells minus the initial absorbance was taken as 100% growth.

| SMILES | GI50 [2] | Quadraplex:duplex ratio [1] |
| --- | --- | --- |
| COC(=O)c1cccc2c1-c1cccc3c1c(c1ccc(OC)cc1[n+]3C)S2 [Example 12, 10-methoxy-4-(methoxycarbonyl)-8-methylthiochromeno[4,3,2-kl]acridin-8-ium chloride] | 4.49 µM | >53 |
| c1ccc2c(c1)Oc1c3ccccc3nc3cccc-2c13 [Example 1, Chromeno[4,3,2-kl]acridine] | 10.4 µM | – |
| C[n+]1c2ccccc2c2c3c(cccc31)-c1ccccc1S2 [Example 3, 8-methylthiochromeno[4,3,2-kl]acridin-8-ium chloride] | 3.04 µM | – |
| CCOC(=O)C[n+]1c2ccccc2c2c3c(cccc31)-c1ccccc1O2 [Example 5, 8-(2-ethoxy-2-oxoethyl)chromeno[4,3,2-kl]acridin-8-ium iodide] | 9.88 µM | – |
| CC(=O)Nc1ccc2c(c1)-c1cccc3nc4ccccc4c(c13)O2 [Example 6, N-(chromeno[4,3,2-kl]acridin-3-yl)acetamide] | 9.39 µM | – |
| COC(=O)c1ccc2c(c1)-c1cccc3c1c(c1ccccc1[n+]3C)S2 [Example 20, 3-(methoxycarbonyl)-8-methylthiochromeno[4,3,2-kl]acridin-8-ium iodide and chloride] | 6.46 µM | – |
| COC(=O)c1cccc2c1-c1cccc3c1c(c1ccccc1[n+]3C)S2 [Example 16, 4-(methoxycarbonyl)-8-methylthiochromeno[4,3,2-kl]acridin-8-ium iodide] | 12.8 µM | – |
| [O-][n+]1c2ccccc2c2c3c(cccc31)-c1ccccc1O2 [Example 4, chromeno[4,3,2-kl]acridine 8-oxide] | > 30 µM | 7.5 |
| CC(=O)Nc1cccc2c1-c1cccc3c1c(c1ccccc1[n+]3C)S2 [Example 18, 4-acetamido-8-methylthiochromeno[4,3,2-kl]acridin-8-ium iodide] | 9.66 µM | – |
| COC(=O)c1ccc2c(c1)Sc1c3ccccc3[n+](C)c3cccc-2c13 [Example 15, 2-(methoxycarbonyl)-8-methylthiochromeno[4,3,2-kl]acridin-8-ium chloride] | 2.99 µM | 18.1 |
| C[n+]1c2ccccc2c2c3c(cccc31)-c1cc(O)ccc1S2 [Example 14, 3-hydroxy-8-methylthiochromeno[4,3,2-kl]acridin-8-ium chloride] | 3.67 µM | >80 |
| COc1ccc2c3c4c(c(OC)ccc4[n+](C)c2c1)-c1ccccc1S3 [Example 19, 5,10-dimethoxy-8-methylthiochromeno[4,3,2-kl]acridin-8-ium iodide] | 1.03 µM | – |
| CC(=O)Oc1ccc2c(c1)-c1cccc3c1c(c1ccccc1[n+]3C)S2 [Example 13, 3-acetoxy-8-methylthiochromeno[4,3,2-kl]acridin-8-ium chloride] | 6.17 µM | – |

Continued, in another order:

| GI50 [2] | SMILES | Quadraplex:duplex ratio [1] |
| --- | --- | --- |
| 0.95 µM | COc1cccc2c1-c1cccc3c1c(c1ccccc1[n+]3C)S2 [Example 9, 4-methoxy-8-methylthiochromeno[4,3,2-kl]acridin-8-ium iodide] | – |
| 0.93 µM | C[n+]1c2ccccc2c2c3c(cccc31)-c1ccccc1O2.[Cl-] [Example 2, 8-Methylchromeno[4,3,2-kl]acridin-8-ium chloride] | 4.75 |
| 1.88 µM | COCOc1ccc2c(c1)-c1cccc3nc4ccccc4c(c13)S2 [Example 17, 3-(methoxymethoxy)thiochromeno[4,3,2-kl]acridine] | – |
| 0.27 µM | COc1ccc2c(c1)-c1cccc3c1c(c1ccc(OC)cc1[n+]3C)S2 [Example 10, 3,10-dimethoxy-8-methylthiochromeno[4,3,2-kl]acridin-8-ium chloride] | 7.0 |
| 0.76 µM | COC(=O)c1ccc2c(c1)Sc1c3ccc(OC)cc3[n+](C)c3cccc-2c13 [Example 11, 10-methoxy-2-(methoxycarbonyl)-8-methylthiochromeno[4,3,2-kl]acridin-8-ium chloride] | 17.4 |
| 0.95 µM | CC(=O)Nc1ccc2c(c1)-c1cccc3c1c(c1ccccc1[n+]3C)O2 [Example 7, acetamido-8-methylchromeno[4,3,2-kl]acridin-8-ium chloride] | – |
| 1.04 µM | COc1ccc2c(c1)-c1cccc3c1c(c1ccccc1[n+]3C)S2 [Example 8, 3-methoxy-8-methylthiochromeno[4,3,2-kl]acridin-8-ium chloride] | – |
